This note sets out measurements from patent publication US9663533B2, “Thieno[3,2-C]pyridin-4(5H)-ones as BET inhibitors” (GlaxoSmithKline LLC, priority 2012, dated 2017).

Structures can show the parent of a compound that is named as a salt. A value given as a limit tells only on which side of the number the result lay.

Experiment [1] relates to LPS induced IL-6 secretion from human whole blood. Description: Quantification of LPS induced IL-6 secretion from human whole blood. The experiment is classed as cell-based. To be noted: LPS 200 ng/mL, 24 hours, MSD ELISA, read-out: pIC50, LPS induced IL-6 secretion (converted). The source says:
Quantification of LPS Induced IL-6 Secretion from Human Whole Blood
Activation of monocytic cells by agonists of toll-like receptors such as bacterial lipopolysaccharide (LPS) leads to the activation of intracellular signaling pathways resulting in the production of key pro-inflammatory mediators including IL-6. Such pathways are widely considered to be central to the pathophysiology of a range of auto-immune and inflammatory disorders.
The impact of bromodomain inhibitors on IL-6 release was assessed in an LPS-stimulated human whole blood assay. Briefly, serial dilutions of test compounds were prepared in DMSO and 1 μL of the diluted compounds or vehicle (DMSO) was added to each well in a 96-well cell culture plate. Fresh blood was collected in heparinized tubes by venipuncture from volunteers with consent, and 130 uL/well was added in the culture plate already containing the compounds. The plates were then incubated for 30 min at 37° C. and 5% CO2 before the addition of 10 μl of 2.8 μg/mL LPS diluted in 1% BSA (LPS from Salmonella typhosa; Sigma L 6386 at a final concentration of 200 ng/mL). After further incubation for 24 hours at 37° C. and 5% CO2, 140 μl of PBS were added to each well. The plates were then sealed, shaken for 10 minutes and then centrifuged for 10 minutes at 2000 rpm. 100 μl of the supernatant were removed and IL-6 levels quantified using an MSD ELISA (MesoScale Discovery technology). Concentration response curves for each compound were generated and an IC50 values were calculated.

The subject of experiment [2] is Bromodomains BRD2, BRD3, BRD4 and BRDT, mutated proteins (BD1 or BD2). Description: TR-FRET assay: affinity of the fluoroligand for mutated versus non-mutated binding domain. Further details: species or system Human. The note with it: single residue mutations in the acetyl lysine binding pocket. The method, then: Binding was assessed using a time resolved fluorescent resonance energy transfer binding assay. This utilises a 6 His purification tag at the N-terminal of the proteins as an epitope for an anti-6 His antibody labeled with Europium chelate (PerkinElmer AD0111) allowing binding of the Europium to the proteins which acts as the donor fluorophore. A small molecule, high affinity binder of the bromodomains BRD2, BRD3, BRD4 and BRDT has been labeled with Alexa Fluor647 (Reference Compound X) and this acts as the acceptor in the FRET pair.
The binding of the compounds of formula (I) to Bromodomains BRD2, BRD3, BRD4 and BRDT was assessed using mutated proteins to detect differential binding to either Binding Domain 1 (BD1) or Binding Domain 2 (BD2) on the bromodomain. These single residue mutations in the acetyl lysine binding pocket greatly lower the affinity of the fluoroligand (Reference Compound X) for the mutated domain (>1000 fold selective for the non-mutated domain). Therefore in the final assay conditions, binding of the fluoroligand to the mutated domain cannot be detected and subsequently the assay is suitable to determine the binding of compounds to the single non-mutated bromodomain. […]
Background: In TR-FRET formats the signal depends on donor and acceptor labels being close together.

Experiment [3] concerns Bromodomain BRD4, mutated proteins (BD1 or BD2). Description: FP assay: affinity of the fluoroligand for mutated versus non-mutated binding domain. Details: species or system Human. To be noted: single residue mutations in the acetyl lysine binding pocket. On the procedure: Binding was assessed using a […] binding assay. This utilises a 6 His purification tag at the N-terminal of the proteins as an epitope for an anti-6 His antibody labeled with Europium chelate (PerkinElmer AD0111) allowing binding of the Europium to the proteins which acts as the donor fluorophore. A small molecule, high affinity binder of the bromodomains BRD2, BRD3, BRD4 and BRDT has been labeled with Alexa Fluor647 (Reference Compound X) and this acts as the acceptor in the FRET pair.
The binding of the compounds of formula (I) to Bromodomain BRD4 was assessed using mutated proteins to detect differential binding to either Binding Domain 1 (BD1) or Binding Domain 2 (BD2) on the bromodomain. These single residue mutations in the acetyl lysine binding pocket greatly lower the affinity of the fluoroligand (Reference Compound X) for the mutated domain (>1000 fold selective for the non-mutated domain). Therefore in the final assay conditions, binding of the fluoroligand to the mutated domain cannot be detected and subsequently the assay is suitable to determine the binding of compounds to the single non-mutated bromodomain.
Protein Production: Recombinant Human Bromodomains [BRD4 (1-477) (Y97A) and (Y390A)] were expressed in E. coli cells (in pET15b vector) with a 6-His tag at the N-terminal. […]

Take `CC(Oc1cncc(-c2cn(C)c(=O)c3cc(CN4CCN(S(C)(=O)=O)CC4)sc23)c1)c1ccccn1` (racemic) [Example 3, (±)-5-methyl-2-((4-(methylsulphonyl)piperazin-1-yl)methyl)-7-(5-(1-(pyridin-2-yl)ethoxy)pyridin-3-yl)thieno[3,2-c]pyridin-4(5H)-one]: in experiment [1], the IC50 was no more than 10 µM.

For the compound `CC(Oc1cncc(-c2cn(C)c(=O)c3cc(CN4CCN(S(C)(=O)=O)CC4)sc23)c1)c1ccccc1` (stereo not drawn) [Example 1, 5-methyl-2-((4-(methylsulphonyl)piperazin-1-yl)methyl)-7-(5-(1-phenylethoxy)pyridin-3-yl)thieno[3,2-c]pyridin-4(5H)-one hydrochloride], the IC50 in experiment [1] is no more than 10 µM.

Consider `Cn1cc(-c2ccnc(OCC3CCOCC3)c2)c2sc(CN3CCN(S(C)(=O)=O)CC3)cc2c1=O` [Example 7, 5-methyl-2-((4-(methylsulphonyl)piperazin-1-yl)methyl)-7-(2-((tetrahydro-2H-pyran-4-yl)methoxy)pyridin-4-yl)thieno[3,2-c]pyridin-4(5H)-one], for which, in experiment [1], the IC50 was no more than 10 µM.

Regarding `CN1CCCN(Cc2cc3c(=O)n(C)cc(-c4cccc(OCc5ccccc5)c4)c3s2)CC1` [Example 40, 7-(3-(benzyloxy)phenyl)-5-methyl-2-((4-methyl-1,4-diazepan-1-yl)methyl)thieno[3,2-c]pyridin-4(5H)-one, Hydrochloride], the IC50 in experiment [1] is no more than 10 µM.

`CCCC[C@@H]1CN(Cc2cc3c(=O)n(C)cc(-c4ccc(OC)c(OC)c4)c3s2)CCN1` [Example 97, (R)-2-((3-butylpiperazin-1-yl)methyl)-7-(3,4-dimethoxyphenyl)-5-methylthieno[3,2-c]pyridin-4(5H)-one]: the IC50 in experiment [1] is no more than 10 µM.

In the case of `CC(=O)Nc1cc(-c2cn(C)c(=O)c3cc(CN4CCN(S(C)(=O)=O)C[C@H]4C)sc23)ccn1` [Example 119, (R)-N-(4-(5-methyl-2-((2-methyl-4-(methylsulphonyl)piperazin-1-yl)methyl)-4-oxo-4,5-dihydrothieno[3,2-c]pyridin-7-yl)pyridin-2-yl)acetamide], in experiment [1], the IC50 was no more than 10 µM.

Consider `C[C@@H]1CN(S(C)(=O)=O)CCN1Cc1cc2c(=O)n(C)cc(-c3ccncc3OCC3CC3)c2s1` [Example 168, (R)-7-(3-(cyclopropylmethoxy)pyridin-4-yl)-5-methyl-2-((2-methyl-4-(methylsulfonyl)piperazin-1-yl)methyl)thieno[3,2-c]pyridin-4(5H)-one], for which, in experiment [1], the IC50 was no more than 10 µM.

For the compound `COc1ccc2c(c1)C(c1ccc(Cl)cc1)=N[C@@H](CC(=O)NCCCCCNC(=O)CCCCCC1(C)/C(=C/C=C/C=C/C3=[N+](CCCCS(=O)(=O)O)c4ccc(S(=O)(=O)O)cc4C3(C)C)N(CCCCS(=O)(=O)[O-])c3ccc(S(=O)(=O)O)cc31)c1nnc(C)n1-2` (stereo partly drawn) [Reference Compound X], the “Selectivity of the fluoroligand for the non-mutated domain over the mutated domain” value in experiment [2] and in experiment [3] was greater than 1000 fold throughout.
